From PubChem BioAssay (NCI)
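Growth conditions: 96-well plates. Treatment: test compound, 48 hours, 5 concentrations. Analysis: linear interpolation between bracketing concentrations; unreached endpoints set to highest concentration. The concentration for 50% growth inhibition is given as GI50. TGI is the concentration that stops growth completely.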

Legend:
Test in all cases: DTP human tumour cell line panel, 48 h
786-0 renal = tested on: 786-0 renal
A498 renal = tested on: A498 renal
A549 NSCLC = tested on: A549 NSCLC
ACHN renal = tested on: ACHN renal
BT-549 breast = tested on: BT-549 breast
CAKI-1 renal = tested on: CAKI-1 renal
CCRF-CEM leukemia = tested on: CCRF-CEM leukemia
COLO 205 colon = tested on: COLO 205 colon
DU-145 prostate = tested on: DU-145 prostate
EKVX NSCLC = tested on: EKVX NSCLC
HCC-2998 colon = tested on: HCC-2998 colon
HCT-116 colon = tested on: HCT-116 colon
HCT-15 colon = tested on: HCT-15 colon
HL-60(TB) leukemia = tested on: HL-60(TB) leukemia
HOP-62 NSCLC = tested on: HOP-62 NSCLC
HOP-92 NSCLC = tested on: HOP-92 NSCLC
HS 578T breast = tested on: HS 578T breast
HT29 colon = tested on: HT29 colon
IGROV1 ovarian = tested on: IGROV1 ovarian
K-562 leukemia = tested on: K-562 leukemia
KM12 colon = tested on: KM12 colon
LOX IMVI melanoma = tested on: LOX IMVI melanoma
M14 melanoma = tested on: M14 melanoma
MALME-3M melanoma = tested on: MALME-3M melanoma
MCF7 breast = tested on: MCF7 breast
MDA-MB-231 breast = tested on: MDA-MB-231 breast
MDA-MB-435 = tested on: MDA-MB-435
MOLT-4 leukemia = tested on: MOLT-4 leukemia
NCI-H226 lung = tested on: NCI-H226 lung
NCI-H23 lung = tested on: NCI-H23 lung
NCI-H460 lung = tested on: NCI-H460 lung
NCI-H522 lung = tested on: NCI-H522 lung
NCI/ADR-RES ovarian = tested on: NCI/ADR-RES ovarian
OVCAR-3 ovarian = tested on: OVCAR-3 ovarian
OVCAR-4 ovarian = tested on: OVCAR-4 ovarian
OVCAR-5 ovarian = tested on: OVCAR-5 ovarian
OVCAR-8 ovarian = tested on: OVCAR-8 ovarian
PC-3 prostate = tested on: PC-3 prostate
RPMI-8226 leukemia = tested on: RPMI-8226 leukemia
RXF 393 renal = tested on: RXF 393 renal
SF-268 CNS = tested on: SF-268 CNS
SF-295 CNS = tested on: SF-295 CNS
SF-539 CNS = tested on: SF-539 CNS
SK-MEL-2 melanoma = tested on: SK-MEL-2 melanoma
SK-MEL-28 melanoma = tested on: SK-MEL-28 melanoma
SK-MEL-5 melanoma = tested on: SK-MEL-5 melanoma
SK-OV-3 ovarian = tested on: SK-OV-3 ovarian
SN12C renal = tested on: SN12C renal
SNB-19 CNS = tested on: SNB-19 CNS
SNB-75 CNS = tested on: SNB-75 CNS
SR leukemia = tested on: SR leukemia
SW-620 colon = tested on: SW-620 colon
T-47D breast = tested on: T-47D breast
TK-10 renal = tested on: TK-10 renal
U251 CNS = tested on: U251 CNS
UACC-257 melanoma = tested on: UACC-257 melanoma
UACC-62 melanoma = tested on: UACC-62 melanoma
UO-31 renal = tested on: UO-31 renal

O=C1[C@H]2Cc3c([nH]c4ccccc34)[C@@H](c3ccc(Br)cc3)N2C(=O)CN1C1CCN(Cc2ccccc2)CC1
GI50 (786-0 renal): 3.46 µM
TGI (786-0 renal): 7 µM
GI50 (A498 renal): 4.28 µM
TGI (A498 renal): 8.04 µM
GI50 (A549 NSCLC): 3.7 µM
TGI (A549 NSCLC): 13.5 µM
GI50 (ACHN renal): 3.76 µM
TGI (ACHN renal): 9.65 µM
GI50 (BT-549 breast): 3.4 µM
TGI (BT-549 breast): 7.49 µM
GI50 (CAKI-1 renal): 2.44 µM
TGI (CAKI-1 renal): 7.58 µM
GI50 (CCRF-CEM leukemia): 3.3 µM
TGI (CCRF-CEM leukemia): > 25 µM
GI50 (COLO 205 colon): 2.62 µM
TGI (COLO 205 colon): 6.04 µM
GI50 (DU-145 prostate): 7.12 µM
TGI (DU-145 prostate): > 25 µM
GI50 (EKVX NSCLC): 3.35 µM
TGI (EKVX NSCLC): 14.7 µM
GI50 (HCC-2998 colon): 3.44 µM
TGI (HCC-2998 colon): 7.94 µM
GI50 (HCT-116 colon): 2.54 µM
TGI (HCT-116 colon): 5.72 µM
GI50 (HCT-15 colon): 2.62 µM
TGI (HCT-15 colon): 5.92 µM
GI50 (HL-60(TB) leukemia): 2.3 µM
TGI (HL-60(TB) leukemia): 8.31 µM
GI50 (HOP-62 NSCLC): 3.98 µM
TGI (HOP-62 NSCLC): 10.8 µM
GI50 (HOP-92 NSCLC): 2.65 µM
TGI (HOP-92 NSCLC): 6.57 µM
GI50 (HS 578T breast): 3.4 µM
TGI (HS 578T breast): 9.29 µM
GI50 (HT29 colon): 3 µM
TGI (HT29 colon): 7.74 µM
GI50 (IGROV1 ovarian): 1.49 µM
TGI (IGROV1 ovarian): 5.8 µM
GI50 (K-562 leukemia): 1.06 µM
TGI (K-562 leukemia): 9.94 µM
GI50 (KM12 colon): 5.49 µM
TGI (KM12 colon): 18.1 µM
GI50 (LOX IMVI melanoma): 2.73 µM
TGI (LOX IMVI melanoma): 6.92 µM
GI50 (M14 melanoma): 3.24 µM
TGI (M14 melanoma): 8.35 µM
GI50 (MALME-3M melanoma): 3.69 µM
TGI (MALME-3M melanoma): 7.81 µM
GI50 (MCF7 breast): 1.14 µM
TGI (MCF7 breast): 4.75 µM
GI50 (MDA-MB-231 breast): 3.44 µM
TGI (MDA-MB-231 breast): 7.56 µM
GI50 (MDA-MB-435): 3.5 µM
TGI (MDA-MB-435): 7.02 µM
GI50 (MOLT-4 leukemia): 1.5 µM
TGI (MOLT-4 leukemia): > 25 µM
GI50 (NCI-H226 lung): 5.04 µM
TGI (NCI-H226 lung): > 25 µM
GI50 (NCI-H23 lung): 3.98 µM
TGI (NCI-H23 lung): 9.4 µM
GI50 (NCI-H460 lung): 3.87 µM
TGI (NCI-H460 lung): 7.82 µM
GI50 (NCI-H522 lung): 4.6 µM
TGI (NCI-H522 lung): 10.3 µM
GI50 (NCI/ADR-RES ovarian): 3.58 µM
TGI (NCI/ADR-RES ovarian): 9.46 µM
GI50 (OVCAR-3 ovarian): 3.27 µM
TGI (OVCAR-3 ovarian): 7.23 µM
GI50 (OVCAR-4 ovarian): 4.24 µM
TGI (OVCAR-4 ovarian): 13.1 µM
GI50 (OVCAR-5 ovarian): 5.1 µM
TGI (OVCAR-5 ovarian): 12.7 µM
GI50 (OVCAR-8 ovarian): 3.99 µM
TGI (OVCAR-8 ovarian): 9.01 µM
GI50 (PC-3 prostate): 1.67 µM
TGI (PC-3 prostate): 7.3 µM
GI50 (RPMI-8226 leukemia): 1.74 µM
TGI (RPMI-8226 leukemia): 7.67 µM
GI50 (RXF 393 renal): 2.91 µM
TGI (RXF 393 renal): 6.41 µM
GI50 (SF-268 CNS): 3.49 µM
TGI (SF-268 CNS): > 25 µM
GI50 (SF-295 CNS): 4.56 µM
TGI (SF-295 CNS): 9.1 µM
GI50 (SF-539 CNS): 3.61 µM
TGI (SF-539 CNS): 7.03 µM
GI50 (SK-MEL-2 melanoma): 5.73 µM
TGI (SK-MEL-2 melanoma): 14.9 µM
GI50 (SK-MEL-28 melanoma): 4.41 µM
TGI (SK-MEL-28 melanoma): 8.53 µM
GI50 (SK-MEL-5 melanoma): 3.84 µM
TGI (SK-MEL-5 melanoma): 7.29 µM
GI50 (SK-OV-3 ovarian): 6 µM
TGI (SK-OV-3 ovarian): > 25 µM
GI50 (SN12C renal): 3.17 µM
TGI (SN12C renal): 6.72 µM
GI50 (SNB-19 CNS): 6.77 µM
TGI (SNB-19 CNS): > 25 µM
GI50 (SNB-75 CNS): 0.745 µM
TGI (SNB-75 CNS): 18.3 µM
GI50 (SR leukemia): 1.86 µM
TGI (SR leukemia): 8.79 µM
GI50 (SW-620 colon): 3.32 µM
TGI (SW-620 colon): 7.15 µM
GI50 (T-47D breast): 3.54 µM
TGI (T-47D breast): 15.7 µM
GI50 (TK-10 renal): 5.79 µM
TGI (TK-10 renal): 12.7 µM
GI50 (U251 CNS): 2.96 µM
TGI (U251 CNS): 6.53 µM
GI50 (UACC-257 melanoma): 4.64 µM
TGI (UACC-257 melanoma): 10.2 µM
GI50 (UACC-62 melanoma): 3.58 µM
TGI (UACC-62 melanoma): 9.3 µM
GI50 (UO-31 renal): 1.13 µM
TGI (UO-31 renal): 18.2 µM
